Values of other authors, collected in patent publication US20090196919A1, “OXCARBAZEPINE DOSAGE FORMS” (priority 2004, published 2009).

For `NC(=O)N1c2ccccc2CC(=O)c2ccccc21` [Oxcarbazepine, 10,11-dihydro-10-oxo-5H-dibenz[b,f]azepine-5-carboxamide], the solubility in water is given as “poor”.
